Assay results from patent publication US8772499B2, “TRPV3 modulators” (AbbVie Inc., priority 2011, dated 2014).
Read-outs that look alike come from different tables or passages of the source.

Key:
human TRPV3 = target: T1, human TRPV3 (Homo sapiens, UniProt Q8NET8); assay: In vitro antagonism of recombinant human TRPV3 activation (FLIPR Tetra calcium assay); assay type: cell-based; settings: HEK293 cells stably expressing human TRPV3, agonist 2-APB at 80 μM
T1 construct: expressed in transfected cells
T1 sequence (Q8NET8 1-790): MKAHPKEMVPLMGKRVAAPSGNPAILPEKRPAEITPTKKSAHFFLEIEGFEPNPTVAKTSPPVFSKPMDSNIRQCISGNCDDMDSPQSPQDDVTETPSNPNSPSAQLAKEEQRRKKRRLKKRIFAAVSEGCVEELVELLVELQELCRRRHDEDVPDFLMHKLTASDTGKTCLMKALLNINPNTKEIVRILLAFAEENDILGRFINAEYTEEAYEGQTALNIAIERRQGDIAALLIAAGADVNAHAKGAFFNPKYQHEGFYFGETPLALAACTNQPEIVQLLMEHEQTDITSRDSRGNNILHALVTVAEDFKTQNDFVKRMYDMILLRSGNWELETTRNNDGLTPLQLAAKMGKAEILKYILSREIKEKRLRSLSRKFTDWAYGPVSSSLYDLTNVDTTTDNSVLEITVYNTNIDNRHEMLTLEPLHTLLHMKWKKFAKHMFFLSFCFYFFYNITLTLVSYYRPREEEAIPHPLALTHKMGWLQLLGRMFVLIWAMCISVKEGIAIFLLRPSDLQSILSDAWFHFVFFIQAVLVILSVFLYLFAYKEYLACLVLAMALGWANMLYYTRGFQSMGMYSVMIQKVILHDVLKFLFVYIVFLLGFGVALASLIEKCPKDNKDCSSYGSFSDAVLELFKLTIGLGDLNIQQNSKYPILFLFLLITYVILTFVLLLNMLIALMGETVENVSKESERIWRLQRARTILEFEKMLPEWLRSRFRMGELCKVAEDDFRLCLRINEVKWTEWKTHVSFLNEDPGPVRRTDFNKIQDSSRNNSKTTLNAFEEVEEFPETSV
Procedure, shortened: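 Calcium flux read over a 10 min run: compound added at 10 s to Calcium-4-loaded human TRPV3-HEK293 cells, agonist 2-APB (80 μM, its EC80) after 3 min. IC50 derived from peak-minus-baseline signal as percentage of uninhibited 2-APB response, typically averaged over at least two runs.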

[1] = In vitro rat microsomal stability assay; assay type: in vitro ADME, rat (Sprague-Dawley)
Procedure, shortened: (§1)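 Sprague-Dawley rat or human liver microsomes; 37° C.; NADPH cofactor, also spiked into time-zero samples.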

[2] = In vitro human microsomal stability assay; assay type: in vitro ADME
Procedure, shortened: as §1

[3] = actual measured value shown parenthetically, in most cases average of at least two runs, read-out: IC50
[4] = Sprague-Dawley, rat, microsomes, 0.5 h, 0.5 μM, pH 7.4
[5] = human, microsomes, 0.5 h, 0.5 μM, pH 7.4
[6] = reported range, read-out: IC50 (range class)

IC50 (human TRPV3; [3]) [nM]	RAT MICROSOMAL STABILITY (% REMAINING AFTER 30 MINUTES) [1, 4] [%]	HUMAN MICROSOMAL STABILITY (% REMAINING AFTER 30 MINUTES) [2, 5] [%]	IC50 (human TRPV3; [6]) [nM]	SMILES	RAT MICROSOMAL STABILITY (% REMAINING AFTER 30 MINUTES) ([1]; rat liver microsomes (Sprague-Dawley), 0.5 μM substrate, 0.25 mg/mL microsomal protein, pH 7.4, 37° C., NADPH, 30 minutes) [%]	HUMAN MICROSOMAL STABILITY (% REMAINING AFTER 30 MINUTES) ([2]; human liver microsomes, 0.5 μM substrate, 0.25 mg/mL microsomal protein, pH 7.4, 37° C., NADPH, 30 minutes) [%]
2420	50	18		O=C1CC(c2ccc(Cl)c(Cl)c2)([C@H](O)c2ccccn2)C1 [Example 117, 3-(3,4-dichlorophenyl)-3-[(S)-hydroxy(pyridin-2-yl)methyl]cyclobutanone]		
300	0.16	6.4		OC(c1ccccn1)C1(c2ccccc2OC(F)(F)F)CCCO1 (single isomer, unassigned) [Example 97, (syn)-pyridin-2-yl{2-[2-(trifluoromethoxy)phenyl]tetrahydrofuran-2-yl}-methanol]		
> 20000	<0.01	<0.01	> 20000	OC(C1CCCc2cccnc21)C1(c2ccc(F)c(F)c2)CCC1 (single isomer, unassigned) [Example 170, (syn)-[1-(3,4-difluorophenyl)cyclobutyl][5,6,7,8-tetrahydroquinolin-8-yl]-methanol]		
> 20000	<0.01	1.6	> 20000	Nc1cccnc1C(O)C1(c2cccc(OC(F)(F)F)c2)CCC1 (centres unmarked) [Example 124, (3-aminopyridin-2-yl) {1-[3-(trifluoromethoxy)phenyl]cyclobutyl}methanol]		
> 10000	30	33		O/N=C(\c1ccccn1)C1(c2ccc(Cl)c(Cl)c2)CCC1 [Example 230, (Z)-[1-(3,4-dichlorophenyl)cyclobutyl](pyridin-2-yl)methanone oxime]		
2310	0.14	46		OC(c1ccccn1)C1(c2nc3ccccc3s2)CCC1 (centres unmarked) [Example 266, [1-(1,3-benzothiazol-2-yl)cyclobutyl](pyridin-2-yl)methanol]		
610	4.9	13		OC(c1ccccn1)C1(c2ccc(F)c(F)c2)CCCO1 (single isomer, unassigned) [Example 108, (anti)-[2-(3,4-difluorophenyl)tetrahydrofuran-2-yl](pyridin-2-yl)methanol]		
740	11	51		O[C@H](c1ncccn1)C1(c2ccc(Cl)c(Cl)c2)CCC1 [Example 39, (S)-[1-(3,4-dichlorophenyl)cyclobutyl](pyrimidin-2-yl)methanol]		
> 20000	<0.01	9.5	> 20000	OC(C1CCc2cccnc21)C1(c2ccc(Cl)c(Cl)c2)CCC1 (stereo not drawn) [Example 167, (anti)-[1-(3,4-dichlorophenyl)cyclobutyl][6,7-dihydro-5H-cyclopenta[b]-pyridin-7-yl]methanol]		
1690	<0.01	42		COC1CC(c2ccc(Cl)c(Cl)c2)(C(O)c2ccccn2)C1 [Example 150, (S)-[cis-1-(3,4-dichlorophenyl)-3-methoxycyclobutyl](pyridin-2-yl)-methanol]		
3910	21	7.1		O[C@H](c1ccccn1)C1(c2cccc(C(F)(F)F)n2)CCC1 [Example 238, (S)-pyridin-2-yl{1-[6-(trifluoromethyl)pyridin-2-yl]cyclobutyl}methanol]		
660	0.31	1.8	50 to 500	OC(c1ccccn1)C1(c2ccc(Cl)c(Cl)c2)CCCCC1 (centres unmarked) [Example 43, [1-(3,4-dichlorophenyl)cyclohexyl](pyridin-2-yl)methanol]		
5640	0.059	43		CC(C)(C)OC(=O)N1CCC(C2(C(O)c3ccccn3)CCC2)C1 (centres unmarked) [Example 265, tert-butyl 3-{1-[hydroxy(pyridin-2-yl)methyl]cyclobutyl}pyrrolidine-1-carboxylate]		
940	0.74	44		OC(CC1(c2ccc(C(F)(F)F)cc2)CCC1)c1ccccn1 (centres unmarked) [Example 75, 1-(pyridin-2-yl)-2-{1-[4-(trifluoromethyl)phenyl]cyclobutyl}ethanol]		
3270	<0.01	61		OC(c1ccccn1)C1(c2ccc(C(F)(F)F)cc2)CC2(C1)OCCO2 (centres unmarked) [Example 161, pyridin-2-yl{2-[4-(trifluoromethyl)phenyl]-5,8-dioxaspiro[3.4]oct-2-yl}-methanol]		
3400	0.017	0.21		Cc1ccccc1CC1(C(O)c2ccccn2)CCC1 (centres unmarked) [Example 253, [1-(2-methylbenzyl)cyclobutyl](pyridin-2-yl)methanol]		
> 20000	<0.01	4.2	> 20000	COc1ccnc(C(O)C2(c3ccc(Cl)c(Cl)c3)CCC2)c1 (centres unmarked) [Example 289, [1-(3,4-dichlorophenyl)cyclobutyl](4-methoxypyridin-2-yl)methanol]		

SMILES	IC50 (human TRPV3; [3]) [nM]	RAT MICROSOMAL STABILITY (% REMAINING AFTER 30 MINUTES) [1, 4] [%]	HUMAN MICROSOMAL STABILITY (% REMAINING AFTER 30 MINUTES) [2, 5] [%]	IC50 (human TRPV3; [6]) [nM]	RAT MICROSOMAL STABILITY (% REMAINING AFTER 30 MINUTES) ([1]; rat liver microsomes (Sprague-Dawley), 0.5 μM substrate, 0.25 mg/mL microsomal protein, pH 7.4, 37° C., NADPH, 30 minutes) [%]	HUMAN MICROSOMAL STABILITY (% REMAINING AFTER 30 MINUTES) ([2]; human liver microsomes, 0.5 μM substrate, 0.25 mg/mL microsomal protein, pH 7.4, 37° C., NADPH, 30 minutes) [%]
CN1CCC(c2ccc(OC(F)(F)F)cc2)(C(O)c2ccccn2)CC1 (centres unmarked) [Example 145, {1-methyl-4-[4-(trifluoromethoxy)phenyl]piperidin-4-yl}(pyridin-2-yl)-methanol]	1770				42	68
